Measurements taken from patent US4859669A, “Antiinflammatory and anti-hyperproliferative naphthyridin-4-ones” (Schering Corporation, priority 1987, dated 1989).
Like-named read-outs stand apart in the source and are kept apart here.

How the values were obtained:
[1] = molecular target: T1, 5-lipoxygenase (Rattus norvegicus, UniProt P12527); assay: Lipoxygenase assay: arachidonic acid metabolism in rat neutrophils; format: cell-based; details: compound 5×10^-5 Molar
T1 construct: endogenous in cells; host or cells: neutrophils isolated from the pleural exudate of male Wistar-Lewis rats (given "Witar-Lewis" in the source) after BSA / anti-BSA challenge
T1 sequence (P12527 1-673): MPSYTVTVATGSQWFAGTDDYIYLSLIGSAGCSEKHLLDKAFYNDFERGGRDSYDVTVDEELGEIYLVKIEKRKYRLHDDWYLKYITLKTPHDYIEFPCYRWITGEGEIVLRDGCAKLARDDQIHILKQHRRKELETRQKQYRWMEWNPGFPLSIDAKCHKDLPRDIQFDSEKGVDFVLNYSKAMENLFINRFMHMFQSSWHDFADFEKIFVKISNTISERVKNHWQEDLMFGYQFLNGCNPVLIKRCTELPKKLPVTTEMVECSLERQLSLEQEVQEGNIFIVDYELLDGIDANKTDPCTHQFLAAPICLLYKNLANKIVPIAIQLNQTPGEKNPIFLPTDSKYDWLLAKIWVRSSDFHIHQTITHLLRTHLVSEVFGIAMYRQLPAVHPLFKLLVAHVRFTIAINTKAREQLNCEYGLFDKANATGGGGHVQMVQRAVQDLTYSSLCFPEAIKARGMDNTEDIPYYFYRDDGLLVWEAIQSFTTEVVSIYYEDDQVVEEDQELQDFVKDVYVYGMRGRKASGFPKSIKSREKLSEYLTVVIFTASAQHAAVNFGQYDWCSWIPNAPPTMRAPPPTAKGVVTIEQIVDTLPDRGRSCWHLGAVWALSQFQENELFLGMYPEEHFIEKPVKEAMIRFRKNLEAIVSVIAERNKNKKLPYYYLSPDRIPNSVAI
Method: The effect of the compounds of the invention on 5-lipoxygenase activity is determined using rat neutrophils. Male Witar-Lewis rats are injected intravenously with 5 mg BSA in 0.2 ml pyrogen free saline followed by an intrapleural injection of 500 ug of the IgG fraction of rabbit anti-BSA (Cappel Labs., Lot 17782) in 0.2 ml pyrogen free saline. Injections are made under light ether anesthesia. Four hours later, the pleural cavity exudate consisting of 85 to 95% neutrophils is removed. Neutrophils are isolated from the pleural exudates by centrifugation of 4° C. for 10 min at 200× g. The cell pellet is resuspended in 17 mM Tris is HCl buffer, pH 7.2, containing 0.75% NH4 Cl to lyse contaminating erythrocytes followed by centrifugation at 4° C. for 5 min at 200× g. The pelleted neutrophils are rewashed in 50 mM Tris HCl, pH 7.4, containing 100 mM NaCl, followed by the same centrifugation. The cell pellet is resuspended in 50 mM Tris HCl, pH 7.4, containing 100 mM NaCl and 1 mM CaCl2, at 3-12×10^7 intact neutrophils per ml.
Solutions of compounds in methanol are dried, then resuspended in the cell suspension for 4 min. Arachidonic acid methabolism is determined by incubating 0.1 ml of this suspension with 40 μM [1-^14 C] arachidonic acid (AA) (Amersham, 59 Ci/mole), in the presence of 0.1% BRIJ 56 and 10 μM A23187. Arachidonic acid metabolism as well as the various drug and reagent abbreviations are described in detail in Arch. Dermatol, Vol. 119, pages 541 to 547 (July 1983), the teachings of which are incorporated herein by reference. Assays run in triplicate are initiated by adding cells with inhibitor to a film of the BRIJ 56, arachidonic acid and A23187 37° C. After one minute, reactions are terminated by the addition of 2.4 ml of a chloroform:methanol (1:1 v/v) mixture and 0.9 ml of 0.1% formic acid. […] Products, leukotriene B4 (LTB4), 12-hydroxy heptadecatrienoic acid (HHT) and 5-hydroxy icosatetraenoic acid (5-HETE), are located by autoradiography and appropriate regions of the thin layer plates are scraped and counted in a liquid scintillation counter. […]

[2] = test system: pleural cavity of rats; assay: Reverse passive Arthus reaction in the pleural cavity of rats (Myers et al.); format: in vivo; details: po; rat
Source text: Another procedure for testing for acute antiinflammatory activity measures the reverse passive Arthus reaction in the pleural cavity of rats as described in Myers et al., Inflammation, Vol. 9, No. 1, 1985, pp. 91-98.

[3] = test system: Male Lewis inbred albino rats; assay: Reversed passive Arthus reaction (RPAR), rat paw volume; format: in vivo; details: po, 1 h, dosed one hour prior to sensitization with BSA
Method: REVERSED PASSIVE ARTHUS REACTION (RPAR) ANIMALS, MATERIALS AND METHODS
Male Lewis inbred albino rats weighting 180-220 grams obtained from Charles River Breeding Laboratories are used in these experiments. The rats are housed 3 animals/cage and food and water are allowed ad libitum. The animals are numbered 1-3 in each cage and color marked for identification purposes.
All reagents and drugs are prepared just prior to the study. Crystallized and lyophilized bovine serum albumin (BSA), obtained from Sigma Chemical Company, is solubilized without shaking in cold sterile pyrogen free saline (10 mg/ml). Lyophilized anti-bovine serum albumin (IgG Fraction), obtained from Cappel Laboratories, is suspended in sterile distilled water and diluted with cold pyrogen free saline (PFS) just prior to use. The final concentration of anti-bovine serum albumin is 0.5 mg/ml of PFS. Both BSA and anti-BSA solutions are iced during use. Drugs are suspended or solubilized in an aqueous solution of methyl cellulose (MC) with a homogenizer just prior to administration.
Groups of animals (6/group) are dosed with drug in MC by gavage one hour prior to sensitization with BSA. […] The volume of mercury displaced is converted to weight and recorded. […] Paw volumes are also recorded with a plethysmograph during the development of the inflammation at 2 and 4 hours post-challenge.

inhibition at 50 µM ([1]; read-out: inhibition of HETE production) [%] | inhibition at 50 µM ([1]; read-out: inhibition of HHT production) [%] | inhibition at 50 µM ([1]; read-out: inhibition of LTB4 production) [%] | Compound | ED50 [2] [mg/kg] | ED50 [3] [mg/kg]
60 | ~40 | 60 | O=c1c2c(c3cccnc3n1-c1ccccc1)N(c1ccccc1)CC2 [1,2,3,5-tetrahydro-1,5-diphenyl-4H-pyrrolo[3,2-c][1,8]napthyridin-4-one] | – | –
– | – | – | O=c1c2c(c3cccnc3n1-c1ccccc1)NCC2 [1,2,3,5-tetrahydro-5-phenyl-4H-pyrrolo[3,2-c][1,8]naphthyridin-4-one] | < 25 | ~25
– | – | – | CCOC(=O)N1CCc2c1c1cccnc1n(-c1ccccc1)c2=O [2,3,4,5-tetrahydro-4-oxo-5-phenyl-1H-pyrrolo[3,2-c][1,8]napthyridine-1-carboxylic acid, ethyl ester] | ~25 | –
